{"source": "patent US20140162261A1", "about": "“DETECTION KIT FOR IDENTIFYING GENOTYPE IN DEPRESSION PATIENTS AND METHOD OF USING THE SAME” (priority 2012, published 2014)", "origin": "cited, not measured here", "key": {"[1]": {"target": "T1, striatal dopamine D2 receptors (Homo sapiens, UniProt P14416)", "T1 construct": "host or cells: striatum (in vivo)", "T1 sequence (P14416 whole entry)": "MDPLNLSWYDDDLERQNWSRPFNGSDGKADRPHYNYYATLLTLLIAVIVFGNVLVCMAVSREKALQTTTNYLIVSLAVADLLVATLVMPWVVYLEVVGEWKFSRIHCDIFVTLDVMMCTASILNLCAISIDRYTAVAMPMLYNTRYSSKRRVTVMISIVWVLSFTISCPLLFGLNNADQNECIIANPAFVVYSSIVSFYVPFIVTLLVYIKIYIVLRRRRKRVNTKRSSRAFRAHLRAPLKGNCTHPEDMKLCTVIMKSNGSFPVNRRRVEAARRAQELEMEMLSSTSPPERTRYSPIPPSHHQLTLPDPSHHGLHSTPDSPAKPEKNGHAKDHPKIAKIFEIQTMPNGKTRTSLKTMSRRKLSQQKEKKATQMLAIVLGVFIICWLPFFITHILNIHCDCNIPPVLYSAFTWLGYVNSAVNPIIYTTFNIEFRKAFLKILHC", "conditions": "4 mg dose"}, "[2]": {"test_system": "depression patients", "conditions": "SSRIs in combination with low-dose risperidone (0.5-1 mg/day), in 1-2 days"}, "[3]": {"test_system": "cholinergic receptors"}, "[4]": {"conditions": "oral administration"}, "[5]": {"test_system": "α2-adrenergic receptors"}}, "data": [{"smiles": "Cc1nc2n(c(=O)c1CCN1CCC(c3noc4cc(F)ccc34)CC1)CCCC2", "note": "[Risperidone]", "values": [{"measurement": "blockade of striatal dopamine D2 receptors", "setting": "[1]", "value": "70-80%"}, {"measurement": "improvement of patients' symptoms", "setting": "[2]", "value": "significantly improve most of the patient's symptoms"}, {"measurement": "binding with cholinergic receptors", "setting": "[3]", "value": "does not bind"}, {"measurement": "effect of food on digestion (absorption)", "setting": "[4]", "value": "not affected by food"}, {"measurement": "affinity for α2-adrenergic receptors", "setting": "[5]", "value": "low affinity"}]}]}
